According to patent publication US9833497B2, “Human originated EGF domain proteins and use of the same” (CHENGDU SOURCEBIO LIMITED-LIABILITY COMPANY, priority 2013, dated 2017):

Key:
Type in all cases: cell-based
Klebsiella pneumonia = assay: MIC against Gram-negative bacteria: Klebsiella pneumonia; conditions: 10 h cultivation at 37° C., 5×10^5 CFU/mL, two-fold serial dilution
How it was run: (§1)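 The recombinant human-originated EGF domain proteins were serially diluted two-fold against bacteria at 5×10^5 CFU/mL in LB medium. After shaken incubation at 37° C, the lowest concentration with no bacterial growth was recorded as the MIC.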

Moraxella catarrhalis = assay: MIC against Gram-negative bacteria: Moraxella catarrhalis; conditions: 10 h cultivation at 37° C., 5×10^5 CFU/mL, two-fold serial dilution
How it was run: as §1

Aeromonas hydrophila = assay: MIC against Gram-negative bacteria: Aeromonas hydrophila; conditions: 10 h cultivation at 37° C., 5×10^5 CFU/mL, two-fold serial dilution
How it was run: as §1

Enterobacter cloacae = assay: MIC against Gram-negative bacteria: Enterobacter cloacae; conditions: 10 h cultivation at 37° C., 5×10^5 CFU/mL, two-fold serial dilution
How it was run: as §1

Citrobacter diversus = assay: MIC against Gram-negative bacteria: Citrobacter diversus; conditions: 10 h cultivation at 37° C., 5×10^5 CFU/mL, two-fold serial dilution
How it was run: as §1

Proteus vulgaris = assay: MIC against Gram-negative bacteria: Proteus vulgaris; conditions: 10 h cultivation at 37° C., 5×10^5 CFU/mL, two-fold serial dilution
How it was run: as §1

Pseudomonas aeruginosa = assay: MIC against Gram-negative bacteria: Pseudomonas aeruginosa; conditions: 10 h cultivation at 37° C., 5×10^5 CFU/mL, two-fold serial dilution
How it was run: as §1

Serratia marcescens = assay: MIC against Gram-negative bacteria: Serratia marcescens; conditions: 10 h cultivation at 37° C., 5×10^5 CFU/mL, two-fold serial dilution
How it was run: as §1

Proteus mirabilis = assay: MIC against Gram-negative bacteria: Proteus mirabilis; conditions: 10 h cultivation at 37° C., 5×10^5 CFU/mL, two-fold serial dilution
How it was run: as §1

E. coli BL21 = assay: MIC against Gram-negative bacteria: E. coli BL21; conditions: 10 h cultivation at 37° C., 5×10^5 CFU/mL, two-fold serial dilution
How it was run: as §1

E. coli DH5α = assay: Antibacterial activity: MIC and growth curve against E. coli DH5α in 96-well plate; conditions: minimal inhibitory concentration against E. coli DH5α; 96-well plate, 5×10^5 CFU/mL, 37° C., judged after 8 h
How it was run: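 Log-phase bacteria (OD600 ~0.5) resuspended in LB at 5×10^5 CFU/mL, exposed to recombinant protein at 50, 25, 12.5 μg/mL final in triplicate, 37 °C shaking at 175 rpm. OD600 read every 30 min; MIC is lowest concentration showing no growth.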

Substance	MIC K. pneumonia (Klebsiella pneumonia) [µg/mL]	MIC M. catarrhalis (Moraxella catarrhalis) [µg/mL]	MIC A. hydrophila (Aeromonas hydrophila) [µg/mL]	MIC E. cloacae (Enterobacter cloacae) [µg/mL]	MIC C. diversus (Citrobacter diversus) [µg/mL]	MIC P. vulgaris (Proteus vulgaris) [µg/mL]	MIC P. aeruginosa (Pseudomonas aeruginosa) [µg/mL]	MIC S. marcescens (Serratia marcescens) [µg/mL]	MIC P. mirabilis (Proteus mirabilis) [µg/mL]	MIC E. coli BL21 (E. coli BL21) [µg/mL]	MIC (E. coli DH5α) [µg/mL]
PRT1091 (DVNECSSNPCQNGGTCENLPGNYTCHCPFDNLSRTFYGGRDCS; listed as Homo sapiens)	25	25	25	50	12.5	25	12.5	12.5	50	50	12.5
PRT1092 (ILLGCTHQQCLNNGTCIPHFQDGQHGFSCLCPSGYTGSLCE; listed as Homo sapiens)	12.5	25	12.5	25	12.5	25	25	25	50	50	25
PRT1093 (RKDWCESQPCQSRGRCINLWLSYQCDCHRPYEGPNCL; listed as Homo sapiens)	50	12.5	50	12.5	25	50	12.5	12.5	25	50	12.5
PRT1094 (GDNSCKSNPCHNGGVCHSRWDDFSCSCPALTSGKACE; listed as Homo sapiens)	12.5	50	50	25	12.5	50	25	12.5	12.5	50	25
PRT1095 (EVQWCGFSPCPHGAQCQPVLQGFECIANAVFNGQSGQ; listed as Homo sapiens)	25	50	25	12.5	25	12.5	50	50	25	12.5	50
PRT1096 (QLNVCNSNPCLHGGNCEDIYSSYHCSCPLGWSGKHCE; listed as Homo sapiens)	50	12.5	50	12.5	50	12.5	50	25	12.5	50	12.5
PRT1097 (NIDECFSNPCIHGNCSDRVAAYHCTCEPGYTGVNCE; listed as Homo sapiens)	12.5	100	12.5	25	25	12.5	25	25	25	12.5	25
